# Test results reported in EP0504184B1, “ACTIVE AGENT AGAINST RETROVIRUS GROUP VIRUSES, COMPOSITIONS CONTAINING SAME AND THEIR USE” (PREVISAN S.A., priority 1989, dated 1991).
# Experiments:
# [1] = system: virus VIH-1 dans des cellules Molt-3 B; assay: p24 antigen in culture supernatants of treated Molt-3 B cells continuously producing HIV (optical density); type: cell-based; conditions: for Mesure du pouvoir infectieux des virus VIH-1 dans des cellules Molt-3 B (densité optique): p24 in supernatant
# Experimental: Des cellules Molt-3 B, continuellement productrices de virus VIH, ont été traitées par de la chloroazodine à des concentrations de 1/1500 et 1/3000 pendant des périodes de 1 minute, 10 minutes et 30 minutes.
# Les antigènes p 24 exprimes dans les surnageants de culture ont été évalués après 24 h., 48 h., 72 h. et 96 h.
# Pour mesurer cet effet en contournant la toxicité du produit pour les cellules infectées, on a choisi de prendre un nombre cellulaire extraordinairement élevé de manière à conserver un nombre très faible, mais suffisant, de cellules vivantes après 96 h. Tableau 5
# lymphocytes normaux = type: cell-based, humains
# Text: Des lymphocytes humains provenant du sang périphérique de donneurs séro-négatifs (PBL) sont infectés par du VIH-1 provenant du surnageant de cellules Molt-3, c'est-à-dire de cellules continuellement productrices de ces virus.
# Quatre populations cellulaires sont étudiées quant à leur mortalité : • 1 des lymphocytes normaux en culture (Témoin A). • 2 des lymphocytes normaux en présence de chloroazodine 1/3000. • 3 des lymphocytes infectés non traités (Témoin B). • 4 des lymphocytes infectés, en présence de chloroazodine 1/3000. Tableau 4
# [2] = system: virus VIH-1 dans des lymphocytes humains infectés; assay: p24 antigen of treated HIV-1 infected human lymphocytes (optical density); type: cell-based; conditions: chloroazodine 1/3000
# Text: On a reproduit l'expérience de l'exemple 7, mais avec des lymphocytes humains infectés par du VIH-1. La chloroazodine a été utilisée à la dose de 1/3000 pendant 1 heure, 3 heures et 6 heures sur les cellules infectées. Tableau 6
# Afin de conserver un nombre suffisant de lymphocytes vivants il a fallu limiter l'expérimentation à 6 heures.
structure (smiles),measurement,setting,value
"NC(N=NC(N)=NCl)=NCl [chloroazodine, N, N'-dichloroazodicarbonamidine]",Mesure du pouvoir infectieux des virus VIH-1 dans des cellules Molt-3 B (densité optique),"[1]; chloroazodine 1/1500, treatment 1 min, 24 h. after treatment","0,175"
same,Mesure du pouvoir infectieux des virus VIH-1 dans des cellules Molt-3 B (densité optique),"[1]; chloroazodine 1/1500, treatment 1 min, 48 h. after treatment","0,175"
same,Mesure du pouvoir infectieux des virus VIH-1 dans des cellules Molt-3 B (densité optique),"[1]; chloroazodine 1/1500, treatment 1 min, 72 h. after treatment","0,167"
same,Mesure du pouvoir infectieux des virus VIH-1 dans des cellules Molt-3 B (densité optique),"[1]; chloroazodine 1/1500, treatment 10 min, 24 h. after treatment","0,182"
same,Mesure du pouvoir infectieux des virus VIH-1 dans des cellules Molt-3 B (densité optique),"[1]; chloroazodine 1/1500, treatment 10 min, 48 h. after treatment","0,181"
same,Mesure du pouvoir infectieux des virus VIH-1 dans des cellules Molt-3 B (densité optique),"[1]; chloroazodine 1/1500, treatment 10 min, 72 h. after treatment","0,145"
same,Mesure du pouvoir infectieux des virus VIH-1 dans des cellules Molt-3 B (densité optique),"[1]; chloroazodine 1/1500, treatment 30 min, 24 h. after treatment","0,194"
same,Mesure du pouvoir infectieux des virus VIH-1 dans des cellules Molt-3 B (densité optique),"[1]; chloroazodine 1/1500, treatment 30 min, 48 h. after treatment","0,155"
same,Mesure du pouvoir infectieux des virus VIH-1 dans des cellules Molt-3 B (densité optique),"[1]; chloroazodine 1/1500, treatment 30 min, 72 h. after treatment","0,173"
same,Mesure du pouvoir infectieux des virus VIH-1 dans des cellules Molt-3 B (densité optique),"[1]; chloroazodine 1/3000, treatment 1 min, 24 h. after treatment","0,247"
same,Mesure du pouvoir infectieux des virus VIH-1 dans des cellules Molt-3 B (densité optique),"[1]; chloroazodine 1/3000, treatment 1 min, 48 h. after treatment","0,154"
same,Mesure du pouvoir infectieux des virus VIH-1 dans des cellules Molt-3 B (densité optique),"[1]; chloroazodine 1/3000, treatment 1 min, 72 h. after treatment","0,170"
same,Mesure du pouvoir infectieux des virus VIH-1 dans des cellules Molt-3 B (densité optique),"[1]; chloroazodine 1/3000, treatment 10 min, 24 h. after treatment","0,180"
same,Mesure du pouvoir infectieux des virus VIH-1 dans des cellules Molt-3 B (densité optique),"[1]; chloroazodine 1/3000, treatment 10 min, 48 h. after treatment","0,176"
same,Mesure du pouvoir infectieux des virus VIH-1 dans des cellules Molt-3 B (densité optique),"[1]; chloroazodine 1/3000, treatment 10 min, 72 h. after treatment","0,152"
same,Mesure du pouvoir infectieux des virus VIH-1 dans des cellules Molt-3 B (densité optique),"[1]; chloroazodine 1/3000, treatment 30 min, 24 h. after treatment","0,211"
same,Mesure du pouvoir infectieux des virus VIH-1 dans des cellules Molt-3 B (densité optique),"[1]; chloroazodine 1/3000, treatment 30 min, 48 h. after treatment","0,162"
same,Mesure du pouvoir infectieux des virus VIH-1 dans des cellules Molt-3 B (densité optique),"[1]; chloroazodine 1/3000, treatment 30 min, 72 h. after treatment","0,176"
same,production de VIH par des cellules infectées,"[1]; conclusion of example 7, Molt-3 B cells, chloroazodine 1/1500 and 1/3000",capable d'empêcher la production de VIH par des cellules infectées
same,différences entre les témoins A et B et les lymphocytes sains + chloroazodine,lymphocytes normaux,non significatives
same,Mesure du pouvoir infectieux des virus VIH-1 dans des lymphocytes humains infectés (densité optique),"[2]; treatment 1 hour, 4 days after treatment","0,170"
same,Mesure du pouvoir infectieux des virus VIH-1 dans des lymphocytes humains infectés (densité optique),"[2]; treatment 1 hour, 7 days after treatment","0,170"
same,Mesure du pouvoir infectieux des virus VIH-1 dans des lymphocytes humains infectés (densité optique),"[2]; treatment 1 hour, 11 days after treatment","0,114"
same,Mesure du pouvoir infectieux des virus VIH-1 dans des lymphocytes humains infectés (densité optique),"[2]; treatment 3 hours, 4 days after treatment","0,197"
same,Mesure du pouvoir infectieux des virus VIH-1 dans des lymphocytes humains infectés (densité optique),"[2]; treatment 3 hours, 7 days after treatment","0,158"
same,Mesure du pouvoir infectieux des virus VIH-1 dans des lymphocytes humains infectés (densité optique),"[2]; treatment 3 hours, 11 days after treatment","0,095"
same,Mesure du pouvoir infectieux des virus VIH-1 dans des lymphocytes humains infectés (densité optique),"[2]; treatment 6 hours, 4 days after treatment","0,192"
same,Mesure du pouvoir infectieux des virus VIH-1 dans des lymphocytes humains infectés (densité optique),"[2]; treatment 6 hours, 7 days after treatment","0,203"
same,Mesure du pouvoir infectieux des virus VIH-1 dans des lymphocytes humains infectés (densité optique),"[2]; treatment 6 hours, 11 days after treatment","0,078"
